Reference: the CheMixHub viscosity set

Experiment: xn = mol fraction of the nth substance listed
Details: 101.33 kPa

CCCCCCCCCCCC(=O)OCC + CCCCO
Details	viscosity [mPa·s]
293.15 K, x1 = 0.1001	2.703
293.15 K, x1 = 0.2001	2.643
293.15 K, x1 = 0.3002	2.654
293.15 K, x1 = 0.4	2.718
293.15 K, x1 = 0.5001	2.8
293.15 K, x1 = 0.6002	2.891
293.15 K, x1 = 0.6997	3.008
293.15 K, x1 = 0.8	3.111
293.15 K, x1 = 0.9001	3.225
293.15 K, x2 = 0.1019	3.227
293.15 K, x2 = 0.2001	3.082
293.15 K, x2 = 0.3	2.969
293.15 K, x2 = 0.4001	2.866
293.15 K, x2 = 0.5	2.781
293.15 K, x2 = 0.6	2.699
293.15 K, x2 = 0.7	2.641
293.15 K, x2 = 0.8	2.624
293.15 K, x2 = 0.8999	2.688
298.15 K, x2 = 0.1019	2.872
298.15 K, x2 = 0.2001	2.757
298.15 K, x2 = 0.3	2.645
298.15 K, x2 = 0.4001	2.566
298.15 K, x2 = 0.5	2.477
298.15 K, x2 = 0.6	2.409
298.15 K, x2 = 0.7	2.363
298.15 K, x2 = 0.8	2.342
298.15 K, x2 = 0.8999	2.395
303.15 K, x1 = 0.0997	2.129
303.15 K, x1 = 0.2001	2.093
303.15 K, x1 = 0.2998	2.118
303.15 K, x1 = 0.3532	2.142
303.15 K, x1 = 0.4999	2.233
303.15 K, x1 = 0.5982	2.313
303.15 K, x1 = 0.6997	2.386
303.15 K, x1 = 0.7986	2.474
303.15 K, x1 = 0.9006	2.582
303.15 K, x2 = 0.1019	2.575
303.15 K, x2 = 0.2001	2.468
303.15 K, x2 = 0.3	2.391
303.15 K, x2 = 0.4001	2.309
303.15 K, x2 = 0.5	2.241
303.15 K, x2 = 0.6	2.164
303.15 K, x2 = 0.7	2.122
303.15 K, x2 = 0.8	2.092
303.15 K, x2 = 0.8999	2.131
308.15 K, x2 = 0.1019	2.311
308.15 K, x2 = 0.2001	2.225
308.15 K, x2 = 0.3	2.147
308.15 K, x2 = 0.4001	2.084
308.15 K, x2 = 0.5	2.015
308.15 K, x2 = 0.6	1.943
308.15 K, x2 = 0.7	1.9
308.15 K, x2 = 0.8	1.868
308.15 K, x2 = 0.8999	1.896
313.15 K, x1 = 0.1	1.744
313.15 K, x1 = 0.1724	1.724
313.15 K, x1 = 0.2999	1.72
313.15 K, x1 = 0.4004	1.742
313.15 K, x1 = 0.4998	1.781
313.15 K, x1 = 0.5998	1.818
313.15 K, x1 = 0.7011	1.862
313.15 K, x1 = 0.7997	1.927
313.15 K, x1 = 0.8926	1.979
313.15 K, x2 = 0.1019	2.112
313.15 K, x2 = 0.2001	2.018
313.15 K, x2 = 0.3	1.946
313.15 K, x2 = 0.4001	1.881
313.15 K, x2 = 0.5	1.816
313.15 K, x2 = 0.6	1.754
313.15 K, x2 = 0.7	1.709
313.15 K, x2 = 0.8	1.685
313.15 K, x2 = 0.8999	1.695
318.15 K, x2 = 0.1019	1.934
318.15 K, x2 = 0.2001	1.855
318.15 K, x2 = 0.3	1.787
318.15 K, x2 = 0.4001	1.725
318.15 K, x2 = 0.5	1.66
318.15 K, x2 = 0.6	1.605
318.15 K, x2 = 0.7	1.563
318.15 K, x2 = 0.8	1.529
318.15 K, x2 = 0.8999	1.534
323.15 K, x2 = 0.1019	1.745
323.15 K, x2 = 0.2001	1.674
323.15 K, x2 = 0.3	1.615
323.15 K, x2 = 0.4001	1.563
323.15 K, x2 = 0.5	1.508
323.15 K, x2 = 0.6	1.447
323.15 K, x2 = 0.7	1.399
323.15 K, x2 = 0.8	1.374
323.15 K, x2 = 0.8999	1.364
